Experiments:
[1] = system: collagen induced arthritis (CIA); conditions: Nonpatent Documents 2 to 4, Patent Document 2; cited from earlier work
[2] = system: experimental autoimmune encephalomyelitis (EAE); conditions: Nonpatent Documents 2 to 4, Patent Document 2; cited from earlier work
mononuclear cells = assay: Effect on liver mononuclear cells of Jα18 gene-deficient mice with no NKT cells; type: cell-based
Protocol: (§1) Mononuclear cells were separated from the livers of C57BL/6J mice (8 weeks old, female) and incubated with the compound for 48 hours. […] The reaction by α-GC and slight intake of tritium and the slight amount of cytokine production observed for the compound at 30 ng/ml were not seen in Jα18 gene-deficient mice with no NKT cells, and, therefore, these reactions were confirmed to be NKT cell-dependent reactions (see FIG. 4).

NKT cells = assay: Effect of compound on NKT cells: liver mononuclear cells incubated with compound for 48 hours; type: cell-based, C57BL/6J mice; conditions: 48 hours incubation; FIG. 4
Protocol: as §1

Row | SMILES | effectiveness in CIA, animal model of rheumatoid arthritis [1] | effectiveness in EAE, animal model of multiple sclerosis [2] | reaction (tritium intake, cytokine production) in mice with no NKT cells (mononuclear cells) | IFN-γ production (ELISA, supernatant) (NKT cells) | IL-4 production (ELISA, supernatant) (NKT cells) | cell proliferation (intake of tritium thymidine) (NKT cells)
1 | CCCCCCCCCCCCCCCCCCCCCCCC(=O)N[C@@H](COC1OC(CO)C(O)C(O)C1O)[C@H](O)[C@H](O)CCCCC (stereo partly drawn) [OCH] | high effectiveness | high effectiveness |  |  |  | 
2 | CCCCCCCCCCCCCCCCCCCCCCCCCC(=O)N[C@@H](COC1OC(CO)C(O)C(O)C1O)[C@H](O)[C@H](O)CCCCCCCCCCCCCC (stereo partly drawn) [α-GC, α-galactosyl ceramide] |  |  | not seen | caused | caused | caused
